Results published in PubChem BioAssay AID256 (DTP/NCI, 2004).
Several values for one entry are separate records, joined by “and”; a condition that tells them apart may be missing. Identical values can stand only once. Inconclusive results and toxic doses are left out. How the source made its calls: active means survival T/C of 150% or more; inactive means T/C below 125% in these data.

Test system: CD2F1 mice, L1210 leukemia ip, survival T/C
Assay: NCI In Vivo Anticancer Drug Screen. Data for tumor model L1210 Leukemia (intraperitoneal) in CD2F1 (CDF1) mice
Settings: higher = longer survival
Summary of the method: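 Activity against a transplanted murine tumor was judged by comparing the compound group with a vehicle group. The outcome in the treated animals was divided by that in the controls.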

[1] = endpoint: mean survival time, dose: 100.0 mg/kg/injection, schedule: Q04DX003 (ip), vehicle: saline with Tween-80
[2] = endpoint: mean survival time, dose: 200.0 mg/kg/injection, schedule: Q04DX003 (ip), vehicle: saline with Tween-80
[3] = endpoint: mean survival time, dose: 400.0 mg/kg/injection, schedule: Q04DX003 (ip), vehicle: saline with Tween-80
[4] = endpoint: mean survival time, dose: 100.0 mg/kg/injection, schedule: Q01DX009 (ip), vehicle: saline with Tween-80
[5] = endpoint: mean survival time, dose: 200.0 mg/kg/injection, schedule: Q01DX009 (ip), vehicle: saline with Tween-80
[6] = endpoint: mean survival time, dose: 400.0 mg/kg/injection, schedule: Q01DX009 (ip), vehicle: saline with Tween-80
[7] = endpoint: mean survival time, dose: 100.0 mg/kg/injection, schedule: Q01DX001 (ip), vehicle: saline with Tween-80
[8] = endpoint: mean survival time, dose: 400.0 mg/kg/injection, schedule: Q01DX001 (ip), vehicle: saline with Tween-80

Measured: T/C

CC1CCC(n2cnc3c(Cl)ncnc32)O1 (centres undefined)
inactive: endpoint: median survival time, dose: 12.5 mg/kg/injection, schedule: Q01DX009 (ip), vehicle: Klucel (hydroxypropylcellulose) (HPC) 97 % of control and 101 % of control | endpoint: median survival time, dose: 25.0 mg/kg/injection, schedule: Q01DX009 (ip), vehicle: Klucel (hydroxypropylcellulose) (HPC) 95 % of control and 100 % of control and 105 % of control | endpoint: median survival time, dose: 50.0 mg/kg/injection, schedule: Q01DX009 (ip), vehicle: Klucel (hydroxypropylcellulose) (HPC) 113 % of control and 93 % of control and 108 % of control | endpoint: median survival time, dose: 100.0 mg/kg/injection, schedule: Q01DX009 (ip), vehicle: Klucel (hydroxypropylcellulose) (HPC) 102 % of control and 108 % of control and 111 % of control | endpoint: median survival time, dose: 200.0 mg/kg/injection, schedule: Q01DX009 (ip), vehicle: Klucel (hydroxypropylcellulose) (HPC) 113 % of control (2×) and 114 % of control

COc1ccc(-c2nc(N)c3ncn(C4OC(CO)C(O)C4O)c3n2)cc1 (centres undefined)
inactive: endpoint: mean survival time, dose: 12.5 mg/kg/injection, schedule: Q01DX005 (ip), vehicle: distilled water + Tween-80 98 % of control | endpoint: mean survival time, dose: 25.0 mg/kg/injection, schedule: Q01DX005 (ip), vehicle: distilled water + Tween-80 98 % of control | endpoint: mean survival time, dose: 50.0 mg/kg/injection, schedule: Q01DX005 (ip), vehicle: distilled water + Tween-80 96 % of control | endpoint: mean survival time, dose: 200.0 mg/kg/injection, schedule: Q01DX005 (ip), vehicle: distilled water + Tween-80 88 % of control

CCOC(=O)C(S(C)(=O)=O)S(C)(=O)=O
inactive: endpoint: mean survival time, dose: 75.0 mg/kg/injection, schedule: Q01DX001 (ip), vehicle: saline with Tween-80 97 % of control | endpoint: mean survival time, dose: 150.0 mg/kg/injection, schedule: Q01DX001 (ip), vehicle: saline with Tween-80 108 % of control | endpoint: mean survival time, dose: 300.0 mg/kg/injection, schedule: Q01DX001 (ip), vehicle: saline with Tween-80 98 % of control

CN1C2CCC1CC(OC(=O)c1ccccc1)C2 (centres undefined)
inactive: endpoint: mean survival time, dose: 100.0 mg/kg/injection, schedule: Q04DX002 (ip), vehicle: Klucel (hydroxypropylcellulose) (HPC) 121 % of control | endpoint: mean survival time, dose: 200.0 mg/kg/injection, schedule: Q04DX002 (ip), vehicle: Klucel (hydroxypropylcellulose) (HPC) 90 % of control | endpoint: mean survival time, dose: 400.0 mg/kg/injection, schedule: Q04DX002 (ip), vehicle: Klucel (hydroxypropylcellulose) (HPC) 100 % of control

CC1=CCC2(C)CCC(C(C)C)C2(O)CC1 (centres undefined)
inactive: endpoint: mean survival time, dose: 100.0 mg/kg/injection, schedule: Q04DX003 (ip), vehicle: saline 101 % of control | endpoint: mean survival time, dose: 200.0 mg/kg/injection, schedule: Q04DX003 (ip), vehicle: saline 93 % of control | endpoint: mean survival time, dose: 400.0 mg/kg/injection, schedule: Q04DX003 (ip), vehicle: saline 102 % of control

COc1ccccc1[As](=O)(O)CC(O)COc1ccccc1 (centres undefined)
inactive: endpoint: mean survival time, dose: 6.25 mg/kg/injection, schedule: Q04DX003 (ip), vehicle: saline with Tween-80 103 % of control | endpoint: mean survival time, dose: 12.5 mg/kg/injection, schedule: Q04DX003 (ip), vehicle: saline with Tween-80 104 % of control | endpoint: mean survival time, dose: 25.0 mg/kg/injection, schedule: Q04DX003 (ip), vehicle: saline with Tween-80 113 % of control

Cc1cc(=O)n2cc(Br)ccc2n1
inactive: endpoint: mean survival time, dose: 12.5 mg/kg/injection, schedule: Q01DX001 (ip), vehicle: saline 108 % of control | endpoint: mean survival time, dose: 25.0 mg/kg/injection, schedule: Q01DX001 (ip), vehicle: saline 107 % of control | endpoint: mean survival time, dose: 50.0 mg/kg/injection, schedule: Q01DX001 (ip), vehicle: saline 96 % of control

Cc1c(Cl)c(C)c(Cl)c(C)c1Cl
inactive: [1] 101 % of control | [2] 96 % of control | [3] 101 % of control

COC(=O)/C=C(\C)C(=O)OC
inactive: [4] 100 % of control | [5] 94 % of control | [6] 96 % of control

Cc1ccc(S(=O)(=O)OC2C(O)C(CO)OC2n2c(Br)c(C#N)c3c(N)ncnc32)cc1 (centres undefined)
inactive: endpoint: mean survival time, dose: 25.0 mg/kg/injection, schedule: Q01DX005 (ip), vehicle: saline with Tween-80 93 % of control | endpoint: mean survival time, dose: 50.0 mg/kg/injection, schedule: Q01DX005 (ip), vehicle: saline with Tween-80 102 % of control | endpoint: mean survival time, dose: 100.0 mg/kg/injection, schedule: Q01DX005 (ip), vehicle: saline with Tween-80 100 % of control | endpoint: mean survival time, dose: 200.0 mg/kg/injection, schedule: Q01DX005 (ip), vehicle: saline with Tween-80 96 % of control

CCCCOC(=O)c1ccc(Cl)c(Cl)c1
inactive: endpoint: mean survival time, dose: 100.0 mg/kg/injection, schedule: Q04DX003 (ip), vehicle: Klucel (hydroxypropylcellulose) (HPC) 92 % of control | endpoint: mean survival time, dose: 200.0 mg/kg/injection, schedule: Q04DX003 (ip), vehicle: Klucel (hydroxypropylcellulose) (HPC) 96 % of control | endpoint: mean survival time, dose: 400.0 mg/kg/injection, schedule: Q04DX003 (ip), vehicle: Klucel (hydroxypropylcellulose) (HPC) 103 % of control

CN(Cc1ccc(Cl)cc1)N=Nc1ccc(C#N)cc1
inactive: [4] 98 % of control | [5] 107 % of control | [6] 93 % of control

NC(=O)C1(C(N)=O)CCCCC1
inactive: endpoint: mean survival time, dose: 50.0 mg/kg/injection, schedule: Q04DX002 (ip), vehicle: saline with Tween-80 100 % of control | endpoint: mean survival time, dose: 100.0 mg/kg/injection, schedule: Q04DX002 (ip), vehicle: saline with Tween-80 112 % of control | endpoint: mean survival time, dose: 200.0 mg/kg/injection, schedule: Q04DX002 (ip), vehicle: saline with Tween-80 100 % of control

CCOC(=O)Cc1ccncc1CC
inactive: [7] 94 % of control | [4] 97 % of control | endpoint: mean survival time, dose: 200.0 mg/kg/injection, schedule: Q01DX001 (ip), vehicle: saline with Tween-80 91 % of control | [5] 104 % of control | [8] 100 % of control | [6] 101 % of control

CC(CC(C)(C)C)O[Si](C)C1(C)CCCCC1 (centres undefined)
inactive: [1] 102 % of control | [2] 112 % of control | [3] 106 % of control

CC(=O)OC/C(=N\Nc1ccc([N+](=O)[O-])cc1[N+](=O)[O-])c1ccccc1
inactive: endpoint: mean survival time, dose: 3.13 mg/kg/injection, schedule: Q01DX001 (ip), vehicle: saline with Tween-80 107 % of control | endpoint: mean survival time, dose: 6.25 mg/kg/injection, schedule: Q01DX001 (ip), vehicle: saline with Tween-80 94 % of control | [7] 86 % of control | [8] 90 % of control

C[CH2][Pb]([CH2]C)([CH2]C)[O]C(=O)c1ccc2ccccc2n1
inactive: endpoint: mean survival time, dose: 0.4 mg/kg/injection, schedule: Q01DX009 (ip), vehicle: saline 103 % of control | endpoint: mean survival time, dose: 0.8 mg/kg/injection, schedule: Q01DX009 (ip), vehicle: saline 103 % of control | endpoint: mean survival time, dose: 1.6 mg/kg/injection, schedule: Q01DX009 (ip), vehicle: saline 101 % of control

O=P(Oc1ccccc1)(Oc1ccccc1)C(Nc1ccccc1)c1ccncc1 (centres undefined)
inactive: [1] 93 % of control | [2] 100 % of control | [3] 102 % of control

CC1=CC2=C(C=O)C(=O)[C@](C)(O)[C@@H](O)C2=CO1
inactive: endpoint: mean survival time, dose: 12.5 mg/kg/injection, schedule: Q01DX009 (ip), vehicle: saline with Tween-80 114 % of control | endpoint: mean survival time, dose: 25.0 mg/kg/injection, schedule: Q01DX009 (ip), vehicle: saline with Tween-80 111 % of control | endpoint: mean survival time, dose: 50.0 mg/kg/injection, schedule: Q01DX009 (ip), vehicle: saline with Tween-80 122 % of control

COc1cc2cc(c1Cl)N(C)C(=O)/C=C/C1(C)OC1C(C)C1CC(O)(NC(=O)O1)C(OC)C=C/C=C(\C)C2 (centres undefined)
inactive: endpoint: mean survival time, dose: 1.3 micrograms/kg/injection, schedule: Q01DX009 (ip), vehicle: saline + alcohol 94 % of control | endpoint: mean survival time, dose: 2.5 micrograms/kg/injection, schedule: Q01DX009 (ip), vehicle: saline + alcohol 94 % of control | endpoint: mean survival time, dose: 5.0 micrograms/kg/injection, schedule: Q01DX009 (ip), vehicle: saline + alcohol 97 % of control | endpoint: mean survival time, dose: 10.0 micrograms/kg/injection, schedule: Q01DX009 (ip), vehicle: saline + alcohol 97 % of control
